{"source": "patent US8772318B2", "about": "“Methods and compositions related to targeting monoacylglycerol lipase” (The Scripps Research Institute, priority 2008, dated 2014)", "key": {"[1]": {"tested_on": "human cancer cell lines (C8161, SKOV3, 231MFP, MUM2C, OVCAR3)", "assay": "Lipid measurements in cancer cells", "type": "cell-based", "experimental": "Pharmacological inhibition of MAGL in cancer cells. Pharmacological inhibition studies were conducted as described previously (Chiang et al., Chem. Biol. 13:1041-1050, 2006). Cancer cells were maintained in RPMI medium 1640 with 10% (v/v) fetal calf serum at 37° C. in a humidified atmosphere of 5% CO2/95% air. At 80% confluency, cells were trypsinized and counted using a hemocytometer, and 1×10^6 cells were plated in 6 cm dishes (subconfluent). […] After incubation for 4 hr, the cells were harvested and analyzed by ABPP or LC-MS.\nLipid measurements in cancer cells. Lipid measurements were conducted similarly to protocols described previously (Chiang et al., 2006; supra). Cancer cells were grown in serum-free media for 4 hrs to minimize the contribution of serum-derived lipids to the cellular profiles. The cells (1×10^6 cells/6 cm dish, 80% confluency) were washed with twice with phosphate buffer saline (PBS), isolated by centrifugation at 1,400×g, and dounce-homogenized in 4 ml of a 2:1:1 mixture of chloroform:methanol:Tris buffer. Samples were homogenized in the presence of the following synthetic standards: C12:0 MAGE (10 nmol), C15:0 FFA (10 nmol). Organic and aqueous layers were separated by centrifugation at 2000×g for 5 min and the organic layer was collected. The aqueous layer was acidified (for metabolites such as LPA) by adding 5% formic acid, followed by the addition of 2 ml chloroform. The mixture was vortexed, and the organic layers were combined, dried down under N2 and dissolved in 100 μl chloroform, of which 30 μl was analyzed by LC-MS.\nLC-MS analysis was performed by using an Agilent 1100 LC-MSD SL instrument. […] Mobile phase A was composed of a 95:5 ratio of water:methanol, and mobile phase B consisted of 2-propanol, methanol, and water in a 60:35:5 ratio. Solvent modifiers such as 0.1% formic acid and 0.1% ammonium hydroxide were used to assist ion formation as well as to improve the LC resolution in both positive and negative ionization modes, respectively. The flow rate for each run started at 0.1 ml/min for 5 min, to alleviate backpressure associated with injecting chloroform. The gradient started at 0% B and increased linearly to 100% B over the course of 45 min with a flow rate of 0.4 ml/min, followed by an isocratic gradient of 100% B for 17 min at 0.5 ml/min before equilibrating for 8 min at 0% B with a flow rate of 0.5 ml/min. MS analysis was performed with an electrospray ionization (ESI) source. The capillary voltage was set to 3.0 kV, and the fragmentor voltage was set to 100 V. The drying gas temperature was 350° C., the drying gas flow rate was 10 L/min, and the nebulizer pressure was 35 psi.\nLipidomic analysis was performed in both targeted and untargeted mode by LC-MS analysis. Standard lipid classes were quantitated by targeting using selected ion monitoring (SIM) (except for very high-abundance metabolites which were quantitated by untargeted analysis) and identities of metabolites were confirmed by coelution of metabolites with their respective standards and mass accuracy to within 10 ppm as determined with an accurate mass Agilent 6520 Accurate Mass QTOF-MS-MS. These lipids were quantified by measuring the area under the peak and were normalized to an internal standard (C12:0 MAGE in positive mode or C15:0 FFA in negative mode). […]"}, "[2]": {"tested_on": "human cancer cell lines (C8161, SKOV3, 231MFP, MUM2C, OVCAR3)", "assay": "Cell migration assay (Transwell)", "type": "cell-based", "conditions": "for impaired migration of shMAGL cancer cells: 100 nM; for migration of cancer cells: 100 μM, 4 hr preincubation and coincubation with migration; for migration of MUM2C and OVCAR3 cells / migratory activity of shMAGL or JZL184-treated MAGL-OE cancer cells: 20 μM", "experimental": "Cell migration, cell survival, and invasion studies. Migration assays were performed in Transwell chambers (Corning) with 8 μm pore-sized membranes coated with 10 μg/ml collagen for 4 h at 37° C. A total of 24 hr before the start of the migration assay, cancer cell lines were plated at a concentration of 1×10^6 cells per 6 cm dish. At the start of the migration assay, cells were harvested by washing two times with PBS and were then serum starved in serum-free media for 4 hr. Inhibitor, lipid or vehicle (0.1% DMSO) were preincubated with the cells during this 4 h time. Serum-starved cells were trypsinized, spun at 1400×g for 3 min, resuspended, and counted. 50,000 cells were seeded in the upper chamber of the transwells in 200 μl serum-free media (containing inhibitor, lipid or vehicle). Inhibitor, lipid or vehicle was also added to the lower chamber, and cells were allowed to migrate for 5 h (for C8161 and 231MFP cells) or 20 hr (SKOV3, MUM2C and OVCAR3 cells). The filters were then fixed and stained with Diff-Quik (Dade Behring). Cells that had not migrated through the chamber were removed with a cotton ball. The cells that migrated were counted at a magnification of 400×, and 4 fields were independently counted from each migration chamber. An average of cells in 4 fields for one migration chamber represents n=1."}, "MAGL [3]": {"target": "T1, MAGL (Mus musculus, UniProt O35678)", "T1 construct": "from tissue; host or cells: mouse brain membrane fraction (C57Bl/6 mice for the in vivo studies)", "T1 sequence (O35678 1-303)": "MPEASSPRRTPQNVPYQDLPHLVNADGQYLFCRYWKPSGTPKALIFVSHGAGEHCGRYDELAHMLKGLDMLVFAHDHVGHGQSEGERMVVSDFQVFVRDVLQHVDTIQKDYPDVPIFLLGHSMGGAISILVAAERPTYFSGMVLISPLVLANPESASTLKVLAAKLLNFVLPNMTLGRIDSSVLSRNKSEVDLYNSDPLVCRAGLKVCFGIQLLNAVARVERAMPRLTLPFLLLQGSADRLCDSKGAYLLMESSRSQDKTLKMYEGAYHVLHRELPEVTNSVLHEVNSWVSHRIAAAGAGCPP", "assay": "Competitive ABPP, mouse brain membrane proteome", "type": "biochemical", "text": "First, serine hydrolases are susceptible to covalent inactivation by specific chemical groups that show little or no cross-reactivity with other enzyme classes. […] Second, the functional state of serine hydrolases can be collectively profiled in native biological systems using activity-based protein profiling (ABPP) methods (Cravat et al., Annu Rev Biochem 77:383-414, 2008). ABPP of serine hydrolases uses reporter-tagged fluorophosphonates (FPs), which serve as general activity-based probes for this large and diverse enzyme class (Liu et al., Proc. Natl. Acad. Sci. U.S.A. 96:14694-9, 1999). When performed in a competitive mode, ABPP can serve as a powerful screen to evaluate the potency and selectivity of small-molecule enzyme inhibitors directly in complex proteomes. The screen can be performed as described in the art, e.g., Liu et al., Proc. Natl. Acad. Sci. U.S.A. 96:14694-9, 1999; Li et al., J. Am. Chem. Soc. 129:9594-5, 2007; Leung et al., Nat. Biotech. 21:687-91, 2003; and Greenbaum et al., Mol. Cell. Proteomics 1:60-68, 2002.\nCompetitive activity-based protein profiling (ABPP) experiments. In vitro inhibitor selectivity was examined using a competitive ABPP method as described in the art (e.g., Li et al., J. Am. Chem. Soc. 129:9594-5, 2007; and Leung et al., Nat. Biotech. 21:687-91, 2003). Briefly, mouse brain membrane proteomes, prepared as described herein, were diluted to 1 mg/ml in PBS and pre-incubated with varying concentrations of inhibitors (1 nM to 10 μM) for 30 min at 37° C. prior to the addition of a FP-rhodamine at a final concentration of 2 μM in a 50 μl of total reaction volume. After 30 min at room temperature, the reactions were quenched with 4×SDS-PAGE loading buffer, boiled for 5 min at 90° C., subjected to SDS-PAGE, and visualized in-gel using a flatbed fluorescence scanner.\nEvery 10 min, 50 ul of the reaction was removed and treated with FP-rhodamine (2 μM) for 2 min, quenched with 4×SDS-PAGE loading buffer, and boiled for 5 min at 90° C. The combined reactions were subjected to SDS-PAGE and visualized in-gel using a flatbed fluorescence scanner. The percentage activity remaining was determined by measuring the integrated optical density corresponding to the MAGL or FAAH bands and the results were fit to an exponential curve to determine the pseudo-first order rate constants."}, "MAGL [4]": {"target": "T2, MAGL (Homo sapiens, UniProt Q99685)", "T2 construct": "endogenous in cells; host or cells: human cancer lines (C8161, MUM2B, MUM2C, SKOV3, OVCAR3, 231MFP, MCF7)", "T2 sequence (Q99685 1-303)": "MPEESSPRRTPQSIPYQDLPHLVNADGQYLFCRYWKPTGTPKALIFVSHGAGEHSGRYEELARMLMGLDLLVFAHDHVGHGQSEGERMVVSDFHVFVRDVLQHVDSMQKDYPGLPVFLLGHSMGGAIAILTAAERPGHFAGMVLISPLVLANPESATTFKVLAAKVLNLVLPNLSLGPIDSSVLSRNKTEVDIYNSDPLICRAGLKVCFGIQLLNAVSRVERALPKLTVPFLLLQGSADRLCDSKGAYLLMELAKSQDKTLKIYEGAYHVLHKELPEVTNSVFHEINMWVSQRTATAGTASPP", "assay": "shRNA knockdown of MAGL, activity by ABPP and C20:4 MAG hydrolysis", "type": "cell-based", "conditions": "aggressive cancer lines, ABPP", "experimental": "ABPP and hydrolytic activity assays of cancer cell proteomes. Identification and comparative quantitation of serine hydrolase activities from cancer cell proteomes by ABPP-MudPIT or gel-based ABPP was conducted as previously described using FP-biotin (5 μM) and FP-rhodamine (2 μM), respectively (Jessani et al., Proc. Natl. Acad. Sci. U.S.A 99:10335-10340, 2002; and Jessani et al., Nat. Methods 2:691-697, 2005). C20:4 MAG hydrolytic activity assays were performed as described previously (Blankman et al., Chem. Biol. 14:1347-1356, 2007). For ABPP experiments, cell lysate proteomes were treated with 2 μM FP-rhodamine for 30 min at room temperature (50 μl total reaction volume). Reactions were quenched with one volume of standard 4×SDS/PAGE loading buffer (reducing), separated by SDS/PAGE (10% acrylamide), and visualized in-gel with a Hitachi FMBio IIe flatbed fluorescence scanner (MiraiBio). Integrated band intensities were calculated for the labeled proteins and averaged from three independent cell samples to determine the level of each enzyme activity. IC50 values were determined from dose-response curves from three trials at each inhibitor concentration by using SigmaPlot 10.0. MAGL expression was also assessed by western blotting using standard procedures.\nRNA interference studies in human cancer cell lines. […]"}, "[5]": {"conditions": "aggressive melanoma, ovarian, breast cancer cells"}}, "note": "“Also recorded” adds a separate entry of the source."}
{"molecule": "COc1ccc(C(=O)c2c(C)n(CCN3CCOCC3)c3cc(I)ccc23)cc1", "note": "[AM630]", "values": [{"measurement": "FFA levels in shControl and shMAGL cancer cells", "setting": "[1]; antagonist 1 μM, 4 hr", "result": "unchanged"}, {"measurement": "migratory defect in shMAGL cancer cells", "setting": "[2]; antagonist 1 μM, 4 hr", "result": "not rescued"}]}
{"molecule": "COc1ccc(C(O)(c2ccc(OC)cc2)C2CCN(C(=O)Oc3ccc([N+](=O)[O-])cc3)CC2)cc1", "note": "[JZL175]", "values": [{"measurement": "selectivity for MAGL over FAAH and ABHD6 (competitive ABPP)", "setting": "MAGL [3]", "result": "selectivity for MAGL over both FAAH and ABHD6; also recorded: no or greatly reduced inhibitory activity on FAAH as well as ABHD6"}]}
{"molecule": "CCCCCCCCCCCCCCCC(=O)OC[C@@H](O)COP(=O)(O)O", "note": "[LPA]", "values": [{"measurement": "impaired migration of shMAGL cancer cells", "setting": "[2]; 4 hr", "result": "rescued the impaired migration"}]}
{"molecule": "CCCCC[C@H](O)/C=C/[C@H]1[C@H](O)CC(=O)[C@@H]1C/C=C\\CCCC(=O)O", "note": "[PGE2, prostaglandin E2]", "values": [{"measurement": "impaired migration of shMAGL cancer cells", "setting": "[2]; 4 hr", "result": "rescued the impaired migration"}]}
{"molecule": "CCOC(=O)[C@@]1(CCCCCCOc2ccc(Cl)cc2)CO1", "note": "[etomoxir]", "values": [{"measurement": "FFA levels in cancer cells", "setting": "[1]; 100 μM, 4 hr, exception C20:4 FFA, elevated in C8161 and SKOV3 cells", "result": "did not alter FFA levels"}, {"measurement": "migration of cancer cells", "setting": "[2]", "result": "did not affect migration"}]}
{"molecule": "CCCCCCCCCCCCCCCC(=O)O", "note": "[palmitic acid]", "values": [{"measurement": "migration of MUM2C and OVCAR3 cells", "setting": "[2]; 4 h", "result": "increases the migration"}, {"measurement": "migratory activity of shMAGL or JZL184-treated MAGL-OE cancer cells", "setting": "[2]; 4 h", "result": "fully restored their migratory activity"}]}
{"molecule": "CCCCCCCCCCCCCCCCCC(=O)O", "note": "[stearic acid]", "values": [{"measurement": "migration of MUM2C and OVCAR3 cells", "setting": "[2]; 4 h", "result": "increases the migration"}, {"measurement": "migratory activity of shMAGL or JZL184-treated MAGL-OE cancer cells", "setting": "[2]; 4 h", "result": "fully restored their migratory activity"}]}
{"molecule": "COc1ccc(CN2CCNCC2)c(OC)c1OC", "note": "[trimetazidine]", "values": [{"measurement": "migration of cancer cells", "setting": "[2]", "result": "did not affect migration"}]}
{"molecule": "pertussis toxin", "values": [{"measurement": "enhanced migratory activity of MAGL-OE cancer cells", "setting": "[2]; 100 ng/ml, 4 h", "result": "completely blocked"}]}
{"molecule": "shMAGL1: short hairpin RNA oligonucleotide for MAGL, 5′-CAACTTTCAAGGTCCTTGC-3′ (SEQ ID NO:1) (expressed or natural sequence)", "values": [{"measurement": "FFA levels in shMAGL cells", "setting": "[1]; [5]", "result": "corresponding reductions"}, {"measurement": "MAG levels in shMAGL cells", "setting": "[1]; [5]", "result": "significant elevations"}, {"measurement": "other serine hydrolase activities", "setting": "MAGL [4]", "result": "unaffected"}]}
